# Source: patent publication US20250082633A1, “COMPOUNDS AND METHODS FOR MODULATING SPLICING” (REMIX THERAPEUTICS INC., priority 2021, published 2025)
# pIC50: −log10 of the molar value. Where two headings read alike, the source gives them in different places.
# Assays:
# Assay type in all cases: cell-based
# [1] = system: Target C; test: RT-qPCR splicing assay, gene panel, Target C canonical junction (CJ) mRNA; conditions: Homo sapiens; decrease in CJ mRNA levels; larger panel of genes; Table 3; read-out: Target C CJ IC50
# Experimental: (§1) Compounds described herein were used to modulate RNA transcript abundance in cells. The expression of a target mRNA was measured by detecting the formation of an exon-exon junction in the canonical transcript (CJ). A compound mediated exon-inclusion event was detected by observing an increase in formation of a new junction with an alternative exon (AJ). Real-time qPCR assays were used to detect these splicing switches and interrogate the potency of various compounds towards different target genes. A high-throughput real time quantitative PCR (RT-qPCR) assay was developed to measure these two isoforms of the mRNA (CJ and AJ) for exemplary genes, such as HTT, SMN2, and MYB, together with a control housekeeping gene, GAPDH or GUSB or PPIA, used for normalization. Briefly, the A673 or K562 cell line was treated with various compounds described herein (e.g., compounds of Formula (I)). After treatment, the levels of the HTT, MYB, or SMN2 mRNA targets were determined from each sample of cell lysate by cDNA synthesis followed by qPCR.
# (§2) The A673 cell line was cultured in DMEM with 10% FBS. Cells were diluted with full growth media and plated in a 96-well plate (15,000 cells in 100 ul media per well). The plate was incubated at 37° C. with 5% CO2 for 24 hours to allow cells to adhere. An 11-point 3-fold serial dilution of the compounds was made in DMSO then diluted in media in an intermediate plate. Compounds were transferred from the intermediate plate to the cell plate with the top dose at a final concentration of 10 uM in the well. Final DMSO concentration was kept at or below 0.25%. The cell plate was returned to the incubator at 37° C. with 5% CO2 for an additional 24 hours.
# (§3) The K562 cell line was cultured in IMDM with 10% FBS. For K562, cells were diluted with full growth media and plated in either a 96-well plate (50,000 cells in 50 uL media per well) or a 384-well plate (8,000-40,000 cells in 45 uL media per well). An 11-point 3-fold serial dilution of the compounds were made in DMSO then diluted in media in an intermediate plate. Compound was transferred from the intermediate plate to the cell plate with the top dose at a final concentration of 10 uM in the well. Final DMSO concentration was kept at or below 0.25%. Final volume was 100 uL for 96-well plate and 50 uL for 384-well plate. The cell plate was then placed in an incubator at 37° C. with 5% CO2 for 24 hours.
# (§4) The cells were then gently washed with 50 uL-100 uL cold PBS before proceeding to addition of lysis buffer. 30 uL-50 μL of room temperature lysis buffer with DNAse I (and optionally RNAsin) was added to each well. Cells were shaken/mixed thoroughly at room temperature for 5-10 minutes for lysis to take place and then 3 uL-5 μL of room temperature stop solution was added and wells were shaken/mixed again. After 2-5 minutes, the cell lysate plate was transferred to ice for RT-qPCR reaction setup. The lysates could also be frozen at −80° C. for later use.
# (§5) In some cases, a direct lysis buffer was used. An appropriate volume of 3× lysis buffer (10 mM Tris, 150 mM NaCl, 1.5%-2.5% Igepal and 0.1-1 U/uL RNAsin, pH 7.4) was directly added to either K562 or A673 cells in media and mixed by pipetting 3 times. The plates were then incubated at room temperature with shaking/rocking for 20-50 minutes to allow for lysis to take place. After this time, the cell lysate plate was transferred to ice to set up for the RT-qPCR reactions. The lysates could also be frozen at −80° C. for later use.
# (§6) To set up 10 uL RT-qPCR reactions, cell lysates were transferred to 384-well qPCR plates containing the master mix according to the table below. The plates were sealed, gently vortexed, and spun down before the run. The volumes were adjusted accordingly in some instances where the reaction was carried in 20 μL. The table below summarizes the components of the RT-qPCR reactions:
# (§7) The RT-qPCR reaction was performed using a QuantStudio (ThermoFisher) under the following fast cycling conditions. […]
# [2] = system: HTT mRNA; test: RT-qPCR splicing assay, HTT canonical (CJ) and alternative (AJ) junction mRNA; conditions: Homo sapiens; for pIC50: read-out: HTT CJ IC50
# Experimental: as §1
# (§8) • Cells-to-CT 1-step kit: ThermoFisher A25602, Cells-to-CT lysis reagent: ThermoFisher 4391851C, TaqMan™ Fast Virus 1-Step Master Mix: ThermoFisher 4444436 • GAPDH: VIC-PL, ThermoFisher 4326317E (Assay: Hs99999905_m1)—used for K562/suspension cell lines • GUSB: VIC-PL, ThermoFisher 4326320E (Assay: Hs99999908_m1)—used for K562/suspension cell lines • PPIA: VIC-PL, ThermoFisher 4326316E (Assay: Hs99999904_m1)—used for A673/adherent cell lines
# as §2, §3, §4
# as §5, with “use. […]” for “use.”
# [3] = system: MYB mRNA; test: RT-qPCR splicing assay, MYB canonical (CJ) and alternative (AJ) junction mRNA; conditions: Homo sapiens; for pIC50: read-out: MYB CJ IC50
# Experimental: as §1, §8, §2, §3, §4
# as §5, with “use. […]” for “use.”
# [4] = system: K562 cells; test: Cell Titer Glo 2.0 cell viability assay; conditions: Homo sapiens, 500 cells/well, 72 hours
# Experimental: Compounds described herein were screened for toxicity in K562 (human chronic myelogenous leukemia) and SH-SY5Y (human neuroblastoma) cells using a Cell Titer Glo 2.0 assay. • Promega CellTiter-Glo® 2.0 Cell Viability Assay (cat #G9241) • Corning 384-well TC-treated microplates (cat #3570) Cells were plated at 500 cells/well (K562 cells) in 45 μL of IMDM supplemented with 10% FBS in a 384-well opaque plate. Wells containing only medium were used as a blank control. Test compounds (e.g., compounds of Formula (I), (II), or (III)) were first serially diluted in DMSO then diluted 1:100 with IMDM+10% FBS. The final concentration of DMSO was 0.1% in each well. The cells were incubated for 72 hours at 37° C. and 5% CO2 before assaying with Cell Titer Glo 2.0 reagent.
# [5] = system: SMN2 mRNA; test: RT-qPCR splicing assay, gene panel, SMN2 canonical junction (CJ) mRNA; conditions: Homo sapiens; decrease in CJ mRNA levels; larger panel of genes; Table 3; read-out: SMN2 CJ IC50
# Experimental: as §1, §2, §3, §4, §5, §6, §7
# [6] = decrease in CJ mRNA levels, larger panel of genes, Table 3
# [7] = decrease in canonical junction mRNA, A673 or K562 cells, 24 hours treatment, Table 2
smiles,measurement,setting,value
"CCN1CCC(n2cc3cc(-c4cc(C)c5nc(C)cn5n4)cc(F)c3n2)CC12CCC2 (stereo not drawn) [Compound 198, 6-[2-(5-ethyl-5-azaspiro[3.5]nonan-8-yl)-7-fluoro-indazol-5-yl]-2,8-dimethyl-imidazo[1,2-b]pyridazine]",pIC50,[1],> 7.00
same,pIC50,[2]; [6],> 7.00
same,pIC50,[2]; [7],> 7.00
same,AC50,"[2]; increase in alternative junction mRNA, A673 or K562 cells, 24 hours treatment, Table 2, read-out: HTT AJ AC50",< 100 nM
same,pIC50,[3]; [6],6.00 to 7.00
same,pIC50,[3]; [7],6.00 to 7.00
same,AC50,"[3]; increase in alternative junction mRNA, A673 or K562 cells, 24 hours treatment, Table 2, read-out: MYB AJ AC50",100 to 1000 nM
same,GI50,[4],100 to 1000 nM
same,pIC50,[5],> 7.00
